Assay results from article PMC11596062, “Substrate Specificity of ABCB Transporters Predicted by Docking Simulations Can Be Confirmed by Experimental Tests” (Molecules, 2024).

Columns and labels:
OfABCB2 = test system: T1, OfABCB2; assay: vanadate-sensitive ATPase assay, phosphate release, Sf9 membranes; format: biochemical, Oncopeltus fasciatus; conditions: substrate-stimulated ATPase; difference without / with 500 µM vanadate; 0-800 µM in 2% DMSO; 37 °C; read-out: Km Values [μM] ± SE / OfABCB2
T1 construct: full-length cds (3984 bp, 1327 aa), baculovirus pFBD in Sf9 cells, isolated cell membranes; no tag mentioned
From the text: vanadate-sensitive ATPase assay, phosphate release, Sf9 membranes on OfABCB2

OfABCB1 = conditions: read-out: Km Values [μM] ± SE / OfABCB1; substrate-stimulated ATPase; difference without / with 500 µM vanadate; 0-800 µM in 2% DMSO; 37 °C
From the text: vanadate-sensitive ATPase assay, phosphate release, Sf9 membranes on OfABCB1

Structure (SMILES): C[C@H]1O[C@@H](O[C@H]2[C@@H](O)C[C@H](O[C@H]3[C@@H](O)C[C@H](O[C@H]4CC[C@@]5(C)[C@H](CC[C@@H]6[C@@H]5C[C@@H](O)[C@]5(C)[C@@H](C7=CC(=O)OC7)CC[C@]65O)C4)O[C@@H]3C)O[C@@H]2C)C[C@H](O)[C@@H]1O [digoxin]
- Km (OfABCB2): 9.33 ± 2.43 µM
- Km (OfABCB1): 33.7 ± 11.4 µM

Structure (SMILES): C[C@@H]1O[C@@H](O[C@H]2C[C@@H](O)[C@]3(CO)[C@H]4[C@H](O)C[C@]5(C)[C@@H](C6=CC(=O)OC6)CC[C@]5(O)[C@@H]4CC[C@]3(O)C2)[C@H](O)[C@H](O)[C@H]1O [ouabain]
- Km (OfABCB2): 7.05 ± 2.61 µM
